pIC50: −log10 of the molar value. Where a name gives a salt, the structure may show the parent alone. Read-outs that look alike come from different tables or passages of the source.

The values below come from patent US5589513A, “Pharmaceutical composition and process for the preparation thereof” (Chinoin Gyogyszer es Vegyeszeti Termekek Gyara Rt., priority 1991, dated 1996).

Series [1] concerns MPP^+ uptake to the striatatal synaptosones. Description: MPP+ uptake to striatal synaptosomes. The class given is biochemical. The conditions noted are these: for pIC50: striatal synaptosomes; for uptake inhibitory potency: potential metabolites. How it is done: (§1) 3.) The potential metabolites of deprenyl and p-fluoro-deprenyl, (methylamphetamine, amphetamine and p-fluoro-methylamphetamine, p-fluoro-amphetamine, respectively) have a significant uptake inhibitory potency; they can prevent in vivo the MPTP neurotoxicity without the development of a high degree of MAO inhibition. The tests were carried out according to the method of Heikilla [Nature, 311, 467-469 (1984)].

For series [2], the system named is DSP-4 induced toxicity. Particulars: literature; cited from earlier work.
Series [3] deals with DSP-4 neurotoxicity. In words: Interaction of deprenyl and p-fluoro-deprenyl metabolites with DSP-4 neurotoxicity. The format is in vivo, rats. The conditions noted are these: for prevention of DSP-4 induced neurotoxicity in vivo: dose of 1-5 mg/kg i.p., without development of MAO inhibition. As to the method: The tests were carried out according to the method of Finnegan [Finnegan et al., Eur. J. Pharmacol., 184, 119-126, (1990)].

The test system of series [4] is DA uptake, rat brain synaptosomas, STRIATUM
In words: In vitro DA uptake inhibition on brain synaptosomes (striatum). The class given is biochemical.

For series [5], the system named is NA uptake, rat brain synaptosomas, HYPOTHALAMUS
In words: In vitro NA uptake inhibition on brain synaptosomes (hypothalamus). The format is biochemical.

The subject of series [6] is DSP-4 neurotoxicity. In words: Inhibition of DSP-4 neurotoxicity after oral deprenyl formulations (hippocampus noradrenaline, survival). The class given is in vivo. The conditions noted are these: 3 mg/kg p.o.; 50 mg/kg DSP-4 ip.; rats. How it is done:
The inhibition of DSP-4 neurotoxicity was measured in rats. For treating rats the schedule of Finnegan was followed [Finnegan et al., Eur. J. Pharmacol., 184, 119-126, (1990)].
Wistar male rats, weighing 170-200 g were used. Animals were housed six to a cage under constant temperature (22° C.), in a room illuminated 12 h per day. Food and water were freely available. Rats were pretreated orally with 3 mg/kg of the combination of example 3 (1 mg/kg "fast" (F)+2 mg/kg "slow" (S)), 1, 2, 4 and 8 hours before DSP-4 treatment (50 mg/kg; intraperitoneally).
Each hippocampus of the rats […].

Series [7] relates to MPTP induced neuronal damage. Particulars: literature; cited from earlier work.
The subject of series [8] is MAO-A. Description: Inhibition of MAO activity in brain nucleus free homogenates, 14C-5-HT substrate. The format is in vivo, domestic pig. The conditions noted are these: pig; p. os 96 h; UG-111 48 h (patch 24 h); UG-167 72 h (patch 48 h); UG-191 96 h (patch 72 h). How it is done:
(§2) MAO activity was measured radiometrically according to the methods of Wurtman and Axelrod [Biochem. Pharmacol. 12. 1414-19; (1963)] with a slight modification [K. Magyar in: Monoamine Oxidases and their Selective Inhibition, Ed.: K. Magyar, Pergamon Press, Akademiai Kiado, Budapest, 11-21; (1980)].

The subject of series [9] is MAO-A. In words: Inhibition of MAO activity in liver, 14C-5-HT substrate. The class given is in vivo, domestic pig. The conditions noted are these: pig; times as for brain; where three numbers are printed, apparently single animals. How it is done: as §2
Series [10] concerns MPTP neurotoxicity. In words: MPTP neurotoxicity (dopamine, DOPAC, HVA levels). Particulars: for prevention of MPTP neurotoxicity in vivo: without a high degree of MAO inhibition. The class given is in vivo. Details: DOPAC: unit not given beside the values. As to the method: as §1
Series [11] can be described thus: Distribution of labelled deprenyl and p-fluoro-deprenyl in brain regions and plasma after oral administration. The format is in vivo. The conditions noted are these: rats, deprenyl […], p-fluoro-deprenyl 10 mg/kg. From the text: The simultaneous presence and the equal quantities of the two labels indicate the unchanged molecule (the data relate to the molar concentrations calculated on the basis of the two labels).

The mark [12] stands for this setting: pretreatment 10 mg/kg i.p., DSP-4 50.
The mark [13] stands for this setting: read-out: In vitro uptake inhibition DA STRIATUM
[14] abbreviates: 1. treatment MPTP, 2. treatment the substance (MPTP: phys.s.).
[15] abbreviates: 1. treatment MPTP, 2. treatment the substance (MPTP: phys.s.), % of physiological salt control.
[16] abbreviates: 1. treatment MPTP, 2. treatment the substance (MPTP: phys.s.), time between treatments 30.
Setting [17] is: pretreatment 1 mg/kg i.p., DSP-4 50.
Where [18] appears, read: pretreatment 5 mg/kg i.p., DSP-4 30.
Where [19] appears, read: 1. treatment the substance, 2. treatment MPTP.
[20] abbreviates: 1. treatment the substance, 2. treatment MPTP, % of physiological salt control.

As to `CC(N)Cc1ccc(F)cc1` (single isomer, unassigned; (-)) [(-)-p-F-amphetamine], the pIC50 in series [1] is 6.14.
`NC/C(=C/F)CCc1ccc(F)cc1` [MDL 72974A, (E)-4-fluoro-beta-fluoro-ethylene benzene butamine]: the “effect on DSP-4 induced toxicity / NA depletion” value in series [2] is “fails to prevent DSP-4 induced toxicity”.
As to `CNC(C)Cc1ccc(F)cc1` (single isomer, unassigned; (-)) [(-)-p-F-metamphetamine], the Survival % in [3] (setting [12]) worked out at 0%. In addition, the pIC50 is 3.52 in [4] (read-out: In vitro uptake inhibition DA STRIATUM, listed as (-)-p-FLUORO-MA); 5.12 in [5] (listed as (-)-p-FLUORO-MA); 5.89 in series [1].
In the case of `C#CCN(C)[C@H](C)Cc1ccccc1` [(-)-deprenyl, (-)N-(-1-phenyl-isopropyl)-N-methyl-propinylamine-hydrochloride], the “prevention of the neurotoxicity of DSP-4” value in series [6] was “can prevent”. The “effect on MPTP induced neuronal damage” value in series [7] is given as “can be prevented”. Also, the “inhibition of MAO activity (%) brain 14C-5-HT” value in series [8] is listed as 20.14 ± 6.0%. The “inhibition of MAO activity (%) liver 14C-5-HT” value in [9] is recorded as 10.45 ± 6.4%.
With `CC(N)Cc1ccc(F)cc1` (stereo not drawn) [p-fluoro-amphetamine], the “prevention of DSP-4 induced neurotoxicity in vivo” value in series [3] is “able to prevent”. In addition, the “prevention of MPTP neurotoxicity in vivo” value in series [10] is “can prevent”. Moreover, the uptake inhibitory potency entry in [1] is reported as “significant”.
The corresponding values for `CC(N)Cc1ccccc1` (stereo not drawn) [amphetamine] are “able to prevent”, “can prevent” and “significant”.
On to `C#CCN(C)[C@@H](C)Cc1ccc(F)cc1` [(+)-p-FLUORO-D], for which the figures for the pIC50 in [4] (setting [13]) and in series [5] were 4.80 and 5.21, respectively.
`CC(N)Cc1ccc(F)cc1` (single isomer, unassigned; (+)) [(+)-p-F-amphetamine] showed a pIC50 in [1] of 7.00.
Regarding `OC1(c2ccc(Cl)cc2)c2ccccc2C2=NCCN21` (stereo not drawn) [Mazindol], in series [7], the “effect on MPTP induced neuronal damage” value is recorded as “can be retarded”. For the same compound, the DOPAC in series [10] (setting [14]) is given as 1.1 ± 0.08. Moreover, in series [10] (setting [15]), the DOPAC % amounted to 122% and the Dopamine % is 98%. Further, in series [10] (setting [16]), the Dopamine amounted to 14.0 ± 0.8.
Take `CN1CC=C(c2ccccc2)CC1` [MPTP, 1-methyl-4-phenyl-1,2,3,6-tetrahydropyridine]: in series [10] (setting [14]), the DOPAC is listed as 0.7 ± 0.04 and the “HVA (homovanillic acid)” value was determined as 1.3 ± 0.07. Also, in [10] (setting [15]), the DOPAC % is on record as 77%, the Dopamine % is given as 53% and the “HVA (homovanillic acid)” value is reported as 79%. The Dopamine in series [10] (setting [16]) was 8.0 ± 0.5.
With `CN[C@H](C)Cc1ccccc1` [(-)-metamphetamine], the “Na content of hippocampus in % ± S.D.” value is listed as 61 ± 3.5% in series [3] (setting [17]) and 116 ± 2.1% in series [3] (setting [18]). Besides, the Survival % in series [3] (setting [17]) is on record as 100%; in series [3] (setting [18]), 63%; in series [3] (setting [12]) it was 0%.
`C#CCN(C)C(C)Cc1ccc(F)cc1` (stereo not drawn) [p-fluoro-deprenyl]: the “time in which the unchanged compound was absorbed” value in [11] came to 15 min.
Consider `C#CCN(C)C(C)Cc1ccc(F)cc1` (single isomer, unassigned; (-)) [(-)-p-FLUORO-D], for which the pIC50 in series [4] (setting [13]) was 4.54; in series [5] it was 4.89.
For `CNC(C)Cc1ccc(F)cc1` (single isomer, unassigned; (+)) [(+)-p-F-metamphetamine], the pIC50 in series [4] (read-out: In vitro uptake inhibition DA STRIATUM, listed as (+)-p-FLUORO-MA) was 4.64; in series [5] (listed as (+)-p-FLUORO-MA) it was 5.11; in series [1], 5.89.
For the compound `C#CCN(C)Cc1ccccc1` [Pargyline], the DOPAC was found to be 0.5 ± 0.04 in series [10] (setting [14]) and 1.0 ± 0.06 in series [10] (setting [19]). Further, the “HVA (homovanillic acid)” value in series [10] (setting [14]) was 0.9 ± 0.09; in series [10] (setting [15]), 64%; in series [10] (setting [19]) it was 1.4 ± 0.06; in [10] (setting [20]), 100%. Further, the DOPAC % in [10] (setting [15]) is listed as 55%; in series [10] (setting [20]), 111%. Moreover, the Dopamine % in [10] (setting [15]) was found to be 47%; in [10] (setting [20]) it was 91%. For the same compound, the Dopamine worked out at 7.1 ± 0.6 in [10] (setting [16]) and 13.8 ± 0.5 in [10] (1. treatment the substance, 2. treatment MPTP (pretreatment)).
As for `CNCCCN1c2ccccc2CCc2ccccc21` [desipramine, 10,11-Dihydro-N-methyl-5-H-dibenz(6,7)azepine-5-propanamine], the “effect on DSP-4 induced toxicity / NA depletion” value in series [2] is recorded as “inhibit the NA-depleting effect of DSP-4”.
